Reference: US20260191853A1, “METHOD OF TREATING DRUG-INDUCED BRADYARRHYTHMIA” (OSAKA UNIVERSITY, priority 2022, published 2026)
Entries after “also recorded” stand apart in the source; their conditions may differ.

Legend:
Hartley guinea pigs [1] = assay: Preventive effect on siponimod-induced bradyarrhythmia in isoflurane-anesthetized guinea pig model; format: in vivo
Experimental: A solvent or compound (I) (free form) was administered by oral gavage at a dose of 0.3. 1, or 3 mg/kg (volume: 5 mL/kg) to Hartley guinea pigs (7 to 10 weeks old, male, available from Japan SLC, Inc.). After completion of the administration, each animal was subjected to anesthetic induction by inhalation of isoflurane (available from Pfizer Japan Inc.), and the animal was held on an operating table having a heater function. The trachea was incised, and a tracheal cannula (KN-375, available from Natsume Seisakusho Co., Ltd.) was inserted. The tracheal cannula was connected to a ventilator (SN-480-7, available from Shinano Seisakusho Co., Ltd.), and artificial respiration was controlled by supplying 100% oxygen at a volume of 10 mL and a ventilation rate of 60 times/minute. The solvent used was 0.5 w/v % methyl cellulose 400 solution (available from FUJIFILM Wako Pure Chemical Corporation). Isoflurane (available from Pfizer Japan Inc.) anesthesia (about 1 to 4%, carrier gas: 100% oxygen) was used for maintenance of anesthesia. A catheter (BD intramedic polyethylene tubing PE50, available from Becton, Dickinson and Company) charged with 50 units/mL heparin (available from AY PHARMACEUTICALS CO., LTD.) was inserted into each of the carotid artery and the jugular vein and placed in the blood vessel. Systemic blood pressure was measured with a high-sensitivity DC amplifier (AD-611J, available from NIHON KOHDEN CORPORATION) via the catheter placed in the carotid artery. Electrodes were attached to the body surface, and a body surface electrocardiogram was measured with a high-sensitivity amplifier (AB-611J, available from NIHON KOHDEN CORPORATION). Blood pressure and electrocardiogram data were acquired and analyzed with PowerLab/Labchart system (available from ADInstruments). Analysis items are systolic blood pressure, diastolic blood pressure, average blood pressure, heart rate, P-wave width, PR interval, QRS width, QT interval, and corrected QT interval. Corrected QT interval was calculated using the Fridericia formula (QTc=QT interval/RR interval^1/3). After stabilization of each parameter, siponimod (synthesized according to WO 2017/120124) was continuously administered intravenously at 0.01 mg/kg for 10 minutes via the catheter placed in the jugular vein, followed by observation of the presence or absence of the onset of bradyarrhythmia for 60 minutes. The solvent used was a solution prepared by mixing of Polyethylene Glycol 400 (available from KANTO CHEMICAL CO., INC.) and dimethyl sulfoxide (available from FUJIFILM Wako Pure Chemical Corporation) at 9: 1 (volume ratio). Data were recorded and blood was collected 5, 10, 15, 20, 30, and 60 minutes after initiation of administration of siponimod. The observation was terminated 60 minutes after initiation of the administration, and the animal was euthanized by exsanguination or intravenous administration of a large amount of saturated potassium chloride solution under isoflurane anesthesia. Data were analyzed for atrial beating rate over time, ventricular beating rate over time, electrocardiographic parameters, the presence or absence of the onset of atrioventricular block, and plasma concentrations of compound (I) and siponimod. The plasma was collected by centrifuging the blood and cryopreserved at about −20° C. After thawing of the plasma, plasma drug concentrations were measured using LC/MS/MS after deproteinization with acetonitrile.
In FIG. 3, the measurements are shown as mean±standard error. Abbreviations, etc. are as follows. • (I): compound (I) • Atrioventricular block: the presence or absence of atrioventricular block • (x denotes second- or third-degree atrioventricular block) • PR & QRS: atrioventricular conduction time and ventricular activation time • QT & QTcF: ventricular repolarization time and heart rate-corrected ventricular repolarization time • Plasma concentration: the plasma concentration of siponimod or compound (I)

Hartley guinea pigs [2] = assay: Termination effect on fingolimod-induced bradyarrhythmia in isoflurane-anesthetized guinea pig model; format: in vivo
Text: Hartley guinea pigs (7 to 10 weeks old, male, available from Japan SLC, Inc.) were subjected to anesthetic induction by inhalation of isoflurane (available from Pfizer Japan Inc.), and each animal was held on an operating table having a heater function. The trachea was incised, and a tracheal cannula (KN-375, available from Natsume Seisakusho Co., Ltd.) was inserted. The tracheal cannula was connected to a ventilator (SN-480-7, available from Shinano Seisakusho Co., Ltd.), and artificial respiration was controlled by supplying 100% oxygen at a volume of 10 mL and a ventilation rate of 60 times/minute. Isoflurane (available from Pfizer Japan Inc.) anesthesia (about 1 to 4%, carrier gas: 100% oxygen) was used for maintenance of anesthesia. A catheter (BD intramedic polyethylene tubing PE50, available from Becton, Dickinson and Company) charged with 50 units/mL heparin (available from AY PHARMACEUTICALS CO., LTD.) was inserted into each of the carotid artery and the jugular vein and placed in the blood vessel. Systemic blood pressure was measured with a high-sensitivity DC amplifier (AD-611J, available from NIHON KOHDEN CORPORATION) via the catheter placed in the carotid artery. Electrodes were attached to the body surface, and a body surface electrocardiogram was measured with a high-sensitivity amplifier (AB-611J, available from NIHON KOHDEN CORPORATION). Blood pressure and electrocardiogram data were acquired and analyzed with PowerLab/Labchart system (available from ADInstruments). After stabilization of each parameter, fingolimod hydrochloride (available from Nissan Chemical Corporation) was continuously administered intravenously at 0.1 mg/kg for 10 minutes via the catheter placed in the jugular vein, followed by observation of the presence or absence of atrioventricular block. After confirmation that atrioventricular block continued for 10 minutes from the onset thereof, a solvent or compound (I) dihydrochloride was continuously administered intravenously at 0.1 mg/kg for 30 minutes, and the effect of terminating atrioventricular block was observed during the intravenous administration. The solvent used was saline (available from Otsuka Pharmaceutical Factory, Inc.). Data were recorded and blood was collected 10, 20, and 30 minutes after initiation of administration of compound (I) dihydrochloride and at the time of termination of atrioventricular block. The observation was terminated 30 minutes after initiation of the administration, and the animal was euthanized by exsanguination or intravenous administration of a large amount of saturated potassium chloride solution under isoflurane anesthesia. Data were analyzed for the presence or absence of the termination, the time required for the termination, and the plasma concentration of compound (I) at the time of termination. The plasma was collected by centrifuging the blood and cryopreserved at about −20° C. After thawing of the plasma, plasma drug concentrations were measured using LC/MS/MS after deproteinization with acetonitrile.
In Table 1, the measurements are shown as mean±standard error.

For `Cc1cc(CO)nc2cc3c(cc12)OC(C)(C)[C@H](O)[C@H]3NCCc1ccccc1` [Compound (I), (3R,4S)-7-Hydroxymethyl-2,2,9-trimethyl-4-(phenethylamino)-3,4-dihydro-2H-pyrano[2,3-g]quinoline-3-ol], the “cases in which siponimod-induced atrioventricular block was not observed” value (Hartley guinea pigs [1]; 0.3 mg/kg oral gavage, four cases per group) was 50%, the “cases in which siponimod-induced atrioventricular block was not observed” value (Hartley guinea pigs [1]; 1 mg/kg oral gavage, four cases per group) was 75% and the “cases in which siponimod-induced atrioventricular block was suppressed” value (Hartley guinea pigs [1]; 3 mg/kg oral gavage, four cases per group) was 100%. The “siponimod-induced bradycardia (ventricular beating rate / heart rate)” value (Hartley guinea pigs [1]; 3 mg/kg oral gavage, siponimod 0.01 mg/kg i.v.) was “completely restored; also recorded: completely prevented”, the “onset of siponimod-induced bradyarrhythmia (atrioventricular block)” value (Hartley guinea pigs [1]; 0.3, 1, 3 mg/kg oral gavage, FIG. 3 and FIG. 4) was “prevented the onset of siponimod-induced bradyarrhythmia (atrioventricular block) in a dose-dependent manner” and the “siponimod-induced bradycardia (ventricular beating rate / heart rate)” value (Hartley guinea pigs [1]; compound (I) 0.3, 1, 3 mg/kg oral gavage before siponimod 0.01 mg/kg i.v. over 10 min, FIG. 3) was “improved in a dose-dependent manner; also recorded: prevented a reduction in heart rate”. For the same molecule, the “siponimod-induced prolongation of QT time” value (Hartley guinea pigs [1]; compound (I) oral gavage 0.3-3 mg/kg) was “almost completely suppressed”, the “fingolimod-induced bradyarrhythmia (atrioventricular block: A-V block) termination” value (Hartley guinea pigs [2]; compound (I) dihydrochloride 0.1 mg/kg continuous i.v.) was “completely terminated” and the “Number of cases where atrioventricular block was terminated” value (Hartley guinea pigs [2]; fingolimod-induced block, compound (I) dihydrochloride 0.1 mg/kg continuous i.v. for 30 minutes) was 5/5. For the same molecule, the “Time required for the termination of atrioventricular block” value (Hartley guinea pigs [2]; fingolimod-induced block, compound (I) dihydrochloride 0.1 mg/kg continuous i.v. for 30 minutes, mean±standard error) was 750 ± 43 s and the “Compound (I) concentration at the time of termination” value (Hartley guinea pigs [2]; plasma, fingolimod-induced block, 0.1 mg/kg continuous i.v. for 30 minutes, mean±standard error) was 30.9 ± 1.9 ng/mL.
